Measured values taken from patent US9938273B2 (Plexxikon Inc., priority 2015, dated 2018).
pIC50: −log10 of the molar value.

Tests used:
[1] = test system: MOLM-14 D835Y cells, FLT3 ITD and FLT3 D835Y; test: Cell proliferation assay (CellTiter-Glo), MOLM-14 D835Y; format: cell-based; settings: Homo sapiens, 72 h, 3d-Growth, GMean
In short: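 Three-day growth at 37 °C, 5% CO2 under compound (1 μM top final, 1:3 dilutions, eight points, 0.2% DMSO), read as ATP luminescence by CellTiter-Glo for IC50. Cells: MOLM-14 with FLT3 ITD plus D835Y or F691L, and IL-3-deprived Ba/F3 transfected with FLT3 ITD/D835Y, 1×10^4 per well.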

[2] = molecular target: T1, FLT3-ITD (Homo sapiens, UniProt P36888); test: AlphaScreen kinase assay with recombinant enzyme, FLT3-ITD; format: biochemical; settings: 8pt; read-out: FLT3_ITD 8pt: IC50
T1 sequence (P36888 1-993): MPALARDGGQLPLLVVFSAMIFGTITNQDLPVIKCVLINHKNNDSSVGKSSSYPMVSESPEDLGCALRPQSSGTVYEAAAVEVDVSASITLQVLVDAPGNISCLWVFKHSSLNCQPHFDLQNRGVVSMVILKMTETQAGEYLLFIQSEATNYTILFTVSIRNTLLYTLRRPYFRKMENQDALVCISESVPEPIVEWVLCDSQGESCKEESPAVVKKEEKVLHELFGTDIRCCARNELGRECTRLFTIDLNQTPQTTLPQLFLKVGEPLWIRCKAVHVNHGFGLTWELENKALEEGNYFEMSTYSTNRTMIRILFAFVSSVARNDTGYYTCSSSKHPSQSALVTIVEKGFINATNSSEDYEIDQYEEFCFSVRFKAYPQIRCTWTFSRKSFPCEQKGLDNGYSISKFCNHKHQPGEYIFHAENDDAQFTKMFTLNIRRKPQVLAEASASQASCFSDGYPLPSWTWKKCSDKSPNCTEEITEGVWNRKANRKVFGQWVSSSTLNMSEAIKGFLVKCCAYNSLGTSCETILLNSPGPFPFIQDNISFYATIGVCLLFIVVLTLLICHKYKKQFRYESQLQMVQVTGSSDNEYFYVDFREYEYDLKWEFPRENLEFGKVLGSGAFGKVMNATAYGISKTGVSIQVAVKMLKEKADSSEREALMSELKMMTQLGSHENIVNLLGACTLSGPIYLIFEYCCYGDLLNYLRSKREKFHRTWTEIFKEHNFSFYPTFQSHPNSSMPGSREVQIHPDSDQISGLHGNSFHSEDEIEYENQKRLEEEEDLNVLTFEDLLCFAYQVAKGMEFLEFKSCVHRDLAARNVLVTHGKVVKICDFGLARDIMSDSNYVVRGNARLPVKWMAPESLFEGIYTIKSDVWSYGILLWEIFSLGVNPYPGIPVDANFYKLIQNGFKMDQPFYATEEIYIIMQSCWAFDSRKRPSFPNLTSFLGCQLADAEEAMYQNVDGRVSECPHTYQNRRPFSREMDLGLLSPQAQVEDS
In short: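 AlphaScreen, biotinylated poly(Glu4-Tyr) 30 nM final; PY20 anti-pTyr acceptor and streptavidin donor beads 10 μg/mL; IC50 final conc. 10 μM (FLT3-D835Y, FLT3-ITD) / 100 μM (c-KIT); detection incubations 20 + 60 min RT; 580 nm emission.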

CC(C)(C#N)NC(=O)c1cccc(-c2cnc3[nH]c(C4=CCSCC4)cc3c2)n1 [Compound P-0180, N-(1-cyano-1-methyl-ethyl)-6-[2-(3,6-dihydro-2H-thiopyran-4-yl)-1H-pyrrolo[2,3-b]pyridin-5-yl]pyridine-2-carboxamide]
pIC50 [1]: 5.00 to 10.00
pIC50 [2]: 5.00 to 10.00

N#CC1CCN(C(=O)c2cccc(-c3cnc4[nH]c(-c5ccccc5)cc4c3)n2)C1 (stereo not shown) [Compound P-0105, 1-[6-(2-phenyl-1H-pyrrolo[2,3-b]pyridin-5-yl)pyridine-2-carbonyl]pyrrolidine-3-carbonitrile]
pIC50 [1]: 5.00 to 10.00
pIC50 [2]: 5.00 to 10.00

O=S(=O)(NC1CC1)c1cccc(-c2cnc3[nH]c(-c4ccccc4)cc3c2)n1 [Compound P-0109, N-cyclopropyl-6-(2-phenyl-1H-pyrrolo[2,3-b]pyridin-5-yl)pyridine-2-sulfonamide]
pIC50 [1]: 5.00 to 10.00
pIC50 [2]: 5.00 to 10.00

CC(C)(C#N)NC(=O)c1cccc(-c2cnc3[nH]c(-c4cnc(C5CC5)nc4)cc3c2)n1 [Compound P-0166, N-(1-cyano-1-methyl-ethyl)-6-[2-(2-cyclopropylpyrimidin-5-yl)-1H-pyrrolo[2,3-b]pyridin-5-yl]pyridine-2-carboxamide]
pIC50 [1]: 5.00 to 10.00
pIC50 [2]: 5.00 to 10.00

N#CC1(NC(=O)c2cccc(-c3cnc4[nH]c(-c5ccccc5)cc4c3)n2)CC1 [Compound P-0111, N-(1-cyanocyclopropyl)-6-(2-phenyl-1H-pyrrolo[2.3-b]pyridin-5-yl]pyridine-2-carboxamide]
pIC50 [1]: 5.00 to 10.00
pIC50 [2]: 5.00 to 10.00

O=C(c1cccc(-c2cnc3[nH]c(-c4cnn(CC(F)(F)F)c4)cc3c2)n1)N1CCC(F)(F)C1 [Compound P-0112, (3,3-difluoropyrrolidin-1-yl)-[6-[2-[1-(2,2,2-trifluoroethyl)pyrazol-4-yl]-1H-pyrrolo[2,3-b]pyridin-5-yl]-2-pyridyl]methanone]
pIC50 [1]: 5.00 to 10.00
pIC50 [2]: 5.00 to 10.00

N#CC1(CNC(=O)c2cccc(-c3cnc4[nH]c(-c5ccccc5)cc4c3)n2)CC1 [Compound P-0137, N-[(1-cyanocyclopropyl)methyl]-6-(2-phenyl-1H-pyrrolo[2,3-b]pyridin-5-yl)pyridine-2-carboxamide]
pIC50 [1]: 5.00 to 10.00
pIC50 [2]: 5.00 to 10.00

N#CC1(NC(=O)c2cccc(-c3cnc4[nH]c(-c5ccccc5)cc4c3)n2)CCC1 [Compound P-0114, N-(1-cyanocyclobutyl)-6-(2-phenyl-1H-pyrrolo[2,3-b]pyridin-5-yl)pyridine-2-carboxamide]
pIC50 [1]: 5.00 to 10.00
pIC50 [2]: 5.00 to 10.00

N#CC1CCN(C(=O)c2cccc(-c3cnc4[nH]c(-c5cnn(C(F)F)c5)cc4c3)n2)C1 (stereo not shown) [Compound P-0134, 1-[6-[2-[1-(difluoromethyl)pyrazol-4-yl]-1H-pyrrolo[2,3-b]pyridin-5-yl]pyridine-2-carbonyl]pyrrolidine-3-carbonitrile]
pIC50 [1]: 5.00 to 10.00
pIC50 [2]: 5.00 to 10.00

N#CC1CCN(C(=O)c2cccc(-c3cnc4[nH]c(C5=CCOCC5)c(Cl)c4c3)n2)C1 (stereo not shown) [Compound P-0142, 1-[6-[3-chloro-2-(3,6-dihydro-2H-pyran-4-yl)-1H-pyrrolo[2,3-b]pyridin-5-yl]pyridine-2-carbonyl]pyrrolidine-3-carbonitrile]
pIC50 [1]: 5.00 to 10.00
pIC50 [2]: 5.00 to 10.00

COC1CCN(C(=O)c2cccc(-c3cnc4[nH]c(-c5ccccc5)cc4c3)n2)C1 (stereo not shown) [Compound P-0095, (3-methoxypyrrolidin-1-yl)-[6-(2-phenyl-1H-pyrrolo[2,3-b]pyridin-5-yl)-2-pyridyl]methanone]
pIC50 [1]: 5.00 to 10.00
pIC50 [2]: 5.00 to 10.00

CC(C)(C#N)CNC(=O)c1cccc(-c2cnc3[nH]c(C4=CCS(=O)(=O)CC4)cc3c2)n1 [Compound P-0160, N-(2-cyano-2-methyl-propyl)-6-[2-(1,1-dioxo-3,6-dihydro-2H-thiopyran-4-yl)-1H-pyrrolo[2,3-b]pyridin-5-yl]pyridine-2-carboxamide]
pIC50 [1]: 5.00 to 10.00
pIC50 [2]: 5.00 to 10.00

CC(C)(C#N)NC(=O)c1cccc(-c2cnc3[nH]c(-c4cn[nH]c4)cc3c2)n1 [Compound P-0183, N-(1-cyano-1-methyl-ethyl)-6-[2-(1H-pyrazol-4-yl)-1H-pyrrolo[2,3-b]pyridin-5-yl]pyridine-2-carboxamide]
pIC50 [1]: 5.00 to 10.00
pIC50 [2]: 5.00 to 10.00

CC(C)(C)NC(=O)c1cccc(-c2cnc3[nH]c(-c4ccccc4)cc3c2)n1 [Compound P-0140, N-tert-butyl-6-(2-phenyl-1H-pyrrolo[2,3-b]pyridin-5-yl)pyridine-2-carboxamide]
pIC50 [1]: 5.00 to 10.00
pIC50 [2]: 5.00 to 10.00

CC(C)(C#N)NC(=O)c1cccc(-c2cnc3[nH]c(C#Cc4ccccc4)cc3c2)n1 [Compound P-0176, N-(1-cyano-1-methyl-ethyl)-6-[2-(2-phenylethynyl)-1H-pyrrolo[2,3-b]pyridin-5-yl]pyridine-2-carboxamide]
pIC50 [1]: 5.00 to 10.00
pIC50 [2]: 5.00 to 10.00

Cc1nc(C(C)C)sc1-c1cc2cc(-c3cccc(C(=O)NC(C)(C)C#N)n3)cnc2[nH]1 [Compound P-0169, N-(1-cyano-1-methyl-ethyl)-6-[2-(2-isopropyl-4-methyl-thiazol-5-yl)-1H-pyrrolo[2,3-b]pyridin-5-yl]pyridine-2-carboxamide]
pIC50 [1]: 5.00 to 10.00
pIC50 [2]: 5.00 to 10.00

CC(C)(C#N)NC(=O)c1cccc(-c2cnc3[nH]c(-c4ccc(C5CC5)nc4)cc3c2)n1 [Compound P-0168, N-(1-cyano-1-methyl-ethyl)-6-[2-(6-cyclopropyl-3-pyridyl)-1H-pyrrolo[2,3-b]pyridin-5-yl]pyridine-2-carboxamide]
pIC50 [1]: 5.00 to 10.00
pIC50 [2]: 5.00 to 10.00

Cc1cc(C#N)ccc1-c1cc2cc(-c3cccc(C(=O)N4CCC(C#N)C4)n3)cnc2[nH]1 (stereo not shown) [Compound P-0130, 1-[6-[2-(4-cyano-2-methyl-phenyl)-1H-pyrrolo[2,3-b]pyridin-5-yl]pyridine-2-carbonyl]pyrrolidine-3-carbonitrile]
pIC50 [1]: 5.00 to 10.00
pIC50 [2]: 5.00 to 10.00

CC(C)(C)OC(=O)N1CC=C(c2cc3cc(-c4cccc(C(=O)N5CCC(C#N)C5)n4)cnc3[nH]2)C1 (stereo not shown) [Compound P-0135, tert-butyl 3-[5-[6-(3-cyanopyrrolidine-1-carbonyl)-2-pyridyl]-1H-pyrrolo[2,3-b]pyridin-2-yl]-2,5-dihydropyrrole-1-carboxylate]
pIC50 [1]: 5.00 to 10.00
pIC50 [2]: 5.00 to 10.00

COCCn1cc(-c2cc3cc(-c4cccc(C(=O)NC(C)(C)C#N)n4)cnc3[nH]2)cn1 [Compound P-0172, N-(1-cyano-1-methyl-ethyl)-6-[2-[1-(2-methoxyethyl)pyrazol-4-yl]-1H-pyrrolo[2,3-b]pyridin-5-yl]pyridine-2-carboxamide]
pIC50 [1]: 5.00 to 10.00
pIC50 [2]: 5.00 to 10.00
